Experimental data as given in US8227508B2, “Dietary and pharmaceutical compositions containing carnosol and/or rosmanol and their uses” (DSM IP Assets B.V., priority 2006, dated 2012).

Legend:
[1] = molecular target: T1, human serotonin re-uptake transporter (hSERT) (Homo sapiens, UniProt P31645); test: Serotonin uptake inhibition in HEK-293 cells expressing hSERT; format: cell-based; settings: transfected HEK-293 cells, [3H]-serotonin 20 nM, mean ± s.e.m. (n = 2)
T1 construct: host or cells: HEK-293
T1 sequence (P31645 whole entry): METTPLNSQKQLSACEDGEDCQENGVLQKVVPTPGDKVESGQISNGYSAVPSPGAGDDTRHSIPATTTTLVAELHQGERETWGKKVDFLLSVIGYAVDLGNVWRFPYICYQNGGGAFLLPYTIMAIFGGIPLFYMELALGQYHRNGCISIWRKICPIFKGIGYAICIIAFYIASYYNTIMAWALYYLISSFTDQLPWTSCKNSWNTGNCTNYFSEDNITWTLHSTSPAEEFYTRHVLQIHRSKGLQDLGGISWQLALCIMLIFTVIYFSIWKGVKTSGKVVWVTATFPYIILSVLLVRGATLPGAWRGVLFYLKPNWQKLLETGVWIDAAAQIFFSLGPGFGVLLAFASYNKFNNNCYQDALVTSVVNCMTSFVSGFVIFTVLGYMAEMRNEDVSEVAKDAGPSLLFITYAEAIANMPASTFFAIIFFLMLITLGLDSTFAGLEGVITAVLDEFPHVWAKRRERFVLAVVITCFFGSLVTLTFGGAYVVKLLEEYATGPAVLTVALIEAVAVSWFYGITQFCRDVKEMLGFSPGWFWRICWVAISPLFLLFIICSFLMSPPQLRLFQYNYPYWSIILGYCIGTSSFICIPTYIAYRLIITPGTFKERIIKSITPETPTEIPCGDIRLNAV
Method: The cells were routinely grown in Dulbecco's Modified Eagle's Medium (Bioconcept) containing 10% dialysed foetal calf serum (Invitrogen), penicillin, streptomycin, L-glutamine and the antibiotic G418 and passaged by-trypsinisation. On the day of assay, cells from 80% confluent flasks were harvested by gentle washing with warm phosphate buffered saline (PBS). […] Serotonin uptake into the cells was determined by addition of radio-labelled [^3H]-serotonin (GE Healthcare) at a concentration of 20 nM, and incubation for 40 minutes at 37° C. with gentle shaking. At the end of this time unincorporated label was removed by filtration though Unifilter 96 GF/B plates (Perkin Elmer) using a Tomtec Mach III M cell harvester. The incorporated serotonin retained on the plates was quantified by liquid scintillation counting using Microscint-40/Topcount (Perkin Elmer).

[2] = molecular target: T2, monoamine oxidase B (MAO-B) (Homo sapiens, UniProt P27338); test: Monoamine oxidase B inhibition (benzylamine substrate, HRP/vanillic acid readout); format: biochemical; settings: mean ± s.e.m., n = 2
T2 sequence (P27338 1-520): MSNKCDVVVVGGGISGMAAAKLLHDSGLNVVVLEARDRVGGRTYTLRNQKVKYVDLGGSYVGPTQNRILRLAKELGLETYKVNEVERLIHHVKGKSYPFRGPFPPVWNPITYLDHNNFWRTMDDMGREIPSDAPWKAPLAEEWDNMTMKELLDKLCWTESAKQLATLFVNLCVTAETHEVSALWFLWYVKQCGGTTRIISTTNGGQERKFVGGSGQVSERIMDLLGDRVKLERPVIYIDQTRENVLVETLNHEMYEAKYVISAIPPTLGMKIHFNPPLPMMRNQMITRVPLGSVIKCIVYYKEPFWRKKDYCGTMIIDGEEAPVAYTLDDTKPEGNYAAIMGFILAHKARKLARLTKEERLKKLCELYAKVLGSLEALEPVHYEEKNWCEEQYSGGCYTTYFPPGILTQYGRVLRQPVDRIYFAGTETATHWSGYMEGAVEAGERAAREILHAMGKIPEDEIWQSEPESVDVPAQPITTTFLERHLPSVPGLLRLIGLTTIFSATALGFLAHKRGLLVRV
Method: The organic amines p-tyramine or benzylamine were used as substrates for the monoamine oxidase A (MAO-A) and B (MAO-B) enzymes respectively. The H2O2 produced by this reaction was quantified by reaction with vanillic acid, catalysed by horse radish peroxidase (HRP).
The reactions were carried out at 37° C. in polystyrene microtitre plates. The MAO enzymes (final concentration 2 U/ml) were mixed with either p-tyramine (Sigma, final concentration 0.5 mM) or benzylamine (Sigma, final concentration 0.5 mM) as appropriate and the chromogenic solution (containing vanillic acid (Fluka), 4-aminoantipyrine (Fluka) and horse radish peroxidase (Sigma), final concentrations 0.25 mM, 0.125 mM and 1 U/ml, respectively) in 0.2 M potassium phosphate buffer, pH 7.6. After 40 min incubation, plates were analysed in a microtitre plate absorbance reader, e.g. Spectramax M5 (Molecular Devices Corporation), at 495 nm.
The effects of carnosol and rosmanol on the monoamine oxidase enzymes were determined by their inclusion in the assay at a range of concentrations between 0.03 and 100 μM for 10 minutes prior to and during the incubation with substrate. To determine the effect of the compounds on the HRP-catalysed portion of the reaction, the MAO enzyme was replaced by H2O2 (Molecular Probes, final concentration 50 μM). […]

[3] = tested on: synaptic markers pCREB, pMAPK, GluR1 in hippocampal slice cultures; test: Activation of synaptic (LTP) markers in hippocampal slice cultures; format: cell-based, Wistar rats; settings: hippocampal slices, 15 min treatment; for GluR1, percentage of control values: cell surface AMPA receptor 1; for pCREB, relative activation / pMAPK, relative activation: vs buffer-treated sister cultures
Method: Seven-day-old Wistar rats were decapitated using a guillotine. In less than 1 minute the skull was opened, the cerebral hemispheres were separated and transferred and both hippocampi were dissected and transferred into ice-cold buffer containing 137 mM NaCl, 5 mM KCl, 0.85 mM Na2HPO4, 1.5 mM CaCl2, 0.66 mM KH2PO4, 0.28 mM MgSO4, 1 mM MgCl2, 2.7 mM NaHCO3, 1 mM Kynurenic acid and 0.6% D-glucose.
Transverse hippocampal slices (400 μm) were prepared using a vibrating blade microtome (VT1200S; Leica Microsystems (Schweiz) AG, Heerbrugg, Switzerland) in the same buffer. Hippocampal slices were individually placed on membrane inserts (Millicell Culture Plate Inserts, 0.4 μm) and cultivated at 35° C., 5% CO2, 95% humidity in a medium containing a 1:1 mixture of BME and MEM (both from Invitrogen) containing 25% heat-inactivated horse serum, 1× GlutaMAX, 1× Penicillin/Streptomycin, 0.6% glucose and 1 mM Kynurenic acid (Stoppini, Buchs and Muller (1991), J. Neurosci. Methods, 37(2), 173-82).
After 48 h in culture, synaptic NMDA receptors were activated by addition of carnosol or rosmanol for 15 min in 140 mM NaCl, 5 mM KCl, 1.3 mM CaCl2, 25 mM HEPES (pH 7.3), 33 mM D-glucose and 0.02 mM bicuculline methiodide. […] An additional positive control comprised the addition of 200 μM glycine to sister cultures. After the treatments, sections were washed and fixed for immunohistochemistry. Markers of enhanced synaptic activity, normally associated with long-term potentiation, representing an ex vivo model of learning and memory were quantitated (see Table 6, below).
Treatment of hippocampal cultures with carnosol and rosmanol induced one or more biochemical markers typical for LTP (pCREB: activated form of the cAMP response element binding protein; pMAPK: activated form of the mitogen-activated protein kinase; GluR1: cell surface presence of AMPA receptor 1).

[4] = tested on: mouse; test: Marble burying test; format: in vivo; settings: −30 min
Method: The method applied here follows that described by Broekkamp et al. (1986). Mice (n=15 per treatment group) were individually placed in transparent plastic cages (33×21×18 cm) with 5 cm of sawdust on the floor and 25 marbles (diameter 1 cm) grouped in the centre of the cage. A second, up-turned, cage served as a lid. The number of marbles covered by sawdust (by at least two-thirds) was counted at the end of the 30-min test period. Tests were performed by investigators blind to the drug treatment protocol.
Prior to testing, all test cages and marbles were “impregnated” by leaving 10 naive mice in each cage for 15 minutes.
Carnosol (3, 10 and 30 mg/kg) and rosmanol (10, 30 and 100 mg/kg) were administered i.p. 30 min before the test, and compared with a vehicle control group. Fluoxetine (32 mg/kg), administered under the same experimental conditions, was used as a reference substance.

SMILES	IC50 [1]	IC50 [2]	GluR1, percentage of control values [3]	pCREB, relative activation [3]	pMAPK, relative activation [3]	Number of marbles buried (% change from control) ([4]; 3 mg/kg i.p.)	Number of marbles buried (% change from control) ([4]; 10 mg/kg i.p.)	Number of marbles buried (% change from control) ([4]; 30 mg/kg i.p.)	Number of marbles buried (% change from control) ([4]; 100 mg/kg i.p.)
CC(C)c1cc2c(c(O)c1O)[C@@]13CCCC(C)(C)[C@@H]1C[C@@H]2OC3=O [Carnosol, carnosol]	26.6 ± 6.9 µM	107 ± 19.9 µM	608%	±	++	−12%	−10%	−41%	–
CC(C)c1cc2c(c(O)c1O)[C@@]13CCCC(C)(C)[C@@H]1[C@H](OC3=O)[C@H]2O [Rosmanol, rosmanol]	23.2 ± 9.7 µM	73.3 ± 11.3 µM	320%	±	+	–	−21%	−12%	−55%
